Measured values from PubChem BioAssay AID1745844 (Carcinogenic Potency Database (CPDB), 2022).
Several values for one entry are separate records, joined by “and”; a condition that tells them apart may be missing. Identical values can stand only once. Activity calls are given as the source filed them. How the calls were made is not given here.

System: rodent lifetime carcinogenesis bioassay, tumor incidence TD50
Assay: chronic cancer bioassays in animals – CPDB, compiled studies (AID 1745844)

SMILES: CN(C)NC(=O)CCC(=O)O
- TD50 (mouse, strain B6C3F1, females, in feed, site: any site (literature study), lesion: several types, types named in the paper, dosed 104 weeks, study length 105 weeks): 56400 mg/kg/day (inactive)
- TD50 (mouse, strain B6C3F1, females, in feed, site: liver, lesion: hepatocellular adenoma + hepatocellular carcinoma + neoplastic nodule, dosed 104 weeks, study length 105 weeks): 6820 mg/kg/day
- TD50 (mouse, strain B6C3F1, females, in feed, site: lung, lesion: alveolar/bronchiolar adenoma + alveolar/bronchiolar carcinoma, dosed 104 weeks, study length 105 weeks): 2920 mg/kg/day
- TD50 (mouse, strain B6C3F1, males, in feed, site: any site (literature study), lesion: several types, types named in the paper, dosed 104 weeks, study length 105 weeks): 1500 mg/kg/day
- TD50 (mouse, strain B6C3F1, males, in feed, site: liver, lesion: hepatocellular adenoma + hepatocellular carcinoma + neoplastic nodule, dosed 104 weeks, study length 105 weeks): 2450 mg/kg/day
- TD50 (mouse, strain B6C3F1, males, in feed, site: liver, lesion: hepatocellular adenoma + hepatocellular carcinoma, dosed 104 weeks, study length 105 weeks): 2450 mg/kg/day
- TD50 (mouse, strain B6C3F1, males, in feed, site: liver, lesion: hepatocellular carcinoma, dosed 104 weeks, study length 105 weeks): 2150 mg/kg/day
- TD50 (mouse, strain B6C3F1, males, in feed, site: lung, lesion: alveolar/bronchiolar adenoma + alveolar/bronchiolar carcinoma, dosed 104 weeks, study length 105 weeks): 3400 mg/kg/day
- TD50 (mouse, strain Swiss albino, females, in drinking water, site: blood vessels, lesion: several types, types named in the paper, dosed 92 weeks, study length 92 weeks): 1240 mg/kg/day
- TD50 (mouse, strain Swiss albino, females, in drinking water, site: lung, lesion: several types, types named in the paper, dosed 92 weeks, study length 92 weeks): 1370 mg/kg/day
- TD50 (mouse, strain Swiss albino, males, in drinking water, site: blood vessels, lesion: several types, types named in the paper, dosed 81 weeks, study length 81 weeks): 880 mg/kg/day
- TD50 (mouse, strain Swiss albino, males, in drinking water, site: kidney, lesion: adenoma, dosed 81 weeks, study length 81 weeks): 10900 mg/kg/day
- TD50 (mouse, strain Swiss albino, males, in drinking water, site: liver, lesion: hepatoma, dosed 81 weeks, study length 81 weeks): 38800 mg/kg/day (inactive)
- TD50 (mouse, strain Swiss albino, males, in drinking water, site: lung, lesion: several types, types named in the paper, dosed 81 weeks, study length 81 weeks): 1110 mg/kg/day
- TD50 (rat, strain Fischer 344, females, in feed, site: any site (literature study), lesion: several types, types named in the paper, dosed 104 weeks, study length 105 weeks): 3450 mg/kg/day
- TD50 (rat, strain Fischer 344, females, in feed, site: liver, lesion: hepatocellular adenoma + hepatocellular carcinoma + neoplastic nodule, dosed 104 weeks, study length 105 weeks): 9640 mg/kg/day
- TD50 (rat, strain Fischer 344, females, in feed, site: lung, lesion: alveolar/bronchiolar adenoma, dosed 104 weeks, study length 105 weeks): 4890 mg/kg/day
- TD50 (rat, strain Fischer 344, females, in feed, site: uterus + uterus, endometrium, lesion: leiomyosarcoma + adenocarcinoma, NOS, dosed 104 weeks, study length 105 weeks): 1840 mg/kg/day
- TD50 (rat, strain Fischer 344, females, in feed, site: uterus, endometrium, lesion: adenocarcinoma, NOS, dosed 104 weeks, study length 105 weeks): 2500 mg/kg/day
- TD50 (rat, strain Fischer 344, females, in feed, site: uterus, lesion: leiomyosarcoma, dosed 104 weeks, study length 105 weeks): 5270 mg/kg/day
- carcinogen call (rat, strain Fischer 344, males, in feed, site: any site (literature study), lesion: several types, types named in the paper, dosed 104 weeks, study length 105 weeks): negative (inactive)

SMILES: CN(C)c1ccc(N=Nc2ccccc2)cc1
- TD50 (monkey, strain Rhesus [Macaca mulatta], both sexes, in feed, site: any site (literature study), lesion: malignant tumor, dosed 258 weeks, study length 1019 weeks): 17.2 mg/kg/day
- TD50 (monkey, strain Rhesus [Macaca mulatta], both sexes, in feed, site: lung, lesion: alveolar/bronchiolar carcinoma, dosed 258 weeks, study length 1019 weeks): 4.84 mg/kg/day
- TD50 (rat, strain Wistar albino, females, in feed, site: liver, lesion: bile duct tumor, dosed 33 weeks, study length 56 weeks): 4.9 mg/kg/day
- TD50 (rat, strain Wistar albino, females, in feed, site: liver, lesion: hepatoma, dosed 33 weeks, study length 56 weeks): 3.31 mg/kg/day
- TD50 (rat, strain Wistar albino, females, in feed, site: liver, lesion: liver-cell carcinoma, dosed 33 weeks, study length 56 weeks): 7.42 mg/kg/day

SMILES: Cc1cc(N)ccc1N
- TD50 (mouse, strain B6C3F1, females, in feed, site: any site (literature study), lesion: several types, types named in the paper, dosed 78 weeks, study length 94 weeks): 33200 mg/kg/day
- TD50 (mouse, strain B6C3F1, females, in feed, site: liver, lesion: hepatocellular adenoma + hepatocellular carcinoma + neoplastic nodule, dosed 78 weeks, study length 94 weeks): 1960 mg/kg/day
- TD50 (mouse, strain B6C3F1, females, in feed, site: lung, lesion: alveolar/bronchiolar adenoma + alveolar/bronchiolar carcinoma, dosed 78 weeks, study length 94 weeks): 364 mg/kg/day (inactive) and 364 mg/kg/day
- TD50 (mouse, strain B6C3F1, males, in feed, site: any site (literature study), lesion: several types, types named in the paper, dosed 78 weeks, study length 94 weeks): 272 mg/kg/day (inactive)
- TD50 (mouse, strain B6C3F1, males, in feed, site: liver, lesion: hepatocellular adenoma + hepatocellular carcinoma + neoplastic nodule, dosed 78 weeks, study length 94 weeks): 288 mg/kg/day
- TD50 (mouse, strain B6C3F1, males, in feed, site: lung, lesion: alveolar/bronchiolar adenoma + alveolar/bronchiolar carcinoma, dosed 78 weeks, study length 94 weeks): 3560 mg/kg/day
- carcinogen call (rat, strain Fischer 344, females, in feed, site: any site (literature study), lesion: several types, types named in the paper, dosed 78 weeks, study length 107 weeks): negative (inactive)
- carcinogen call (rat, strain Fischer 344, males, in feed, site: any site (literature study), lesion: several types, types named in the paper, dosed 78 weeks, study length 106 weeks): negative (inactive)
- TD50 (rat, strain Fischer 344, males, in feed, site: liver, lesion: hepatocellular adenoma + hepatocellular carcinoma + neoplastic nodule, dosed 78 weeks, study length 106 weeks): 233 mg/kg/day

SMILES: CCCCCCCCCCCCCCCC(=O)CC(=O)CCCCCCCCCCCCCCC
- carcinogen call (rat, strain F344/DuCrj, females, in feed, site: colon, lesion: one or several types, types not named, dosed 54 weeks, study length 54 weeks): negative (inactive)
- carcinogen call (rat, strain F344/DuCrj, females, in feed, site: mammary gland, lesion: one or several types, types not named, dosed 54 weeks, study length 54 weeks): negative (inactive)

SMILES: CCCCC(CC)COP(=O)(OCC(CC)CCCC)OCC(CC)CCCC (centres undefined)
- TD50 (mouse, strain B6C3F1, females, by gavage, site: liver, lesion: hepatocellular adenoma + hepatocellular carcinoma + neoplastic nodule, dosed 103 weeks, study length 104 weeks): 2220 mg/kg/day
- TD50 (mouse, strain B6C3F1, females, by gavage, site: liver, lesion: hepatocellular adenoma + hepatocellular carcinoma, dosed 103 weeks, study length 104 weeks): 2220 mg/kg/day
- TD50 (mouse, strain B6C3F1, females, by gavage, site: liver, lesion: hepatocellular carcinoma, dosed 103 weeks, study length 104 weeks): 2560 mg/kg/day
- TD50 (mouse, strain B6C3F1, females, by gavage, site: lung, lesion: alveolar/bronchiolar adenoma + alveolar/bronchiolar carcinoma, dosed 103 weeks, study length 104 weeks): 13700 mg/kg/day
- carcinogen call (mouse, strain B6C3F1, males, by gavage, site: any site (literature study), lesion: several types, types named in the paper, dosed 103 weeks, study length 104 weeks): negative (inactive)
- TD50 (mouse, strain B6C3F1, males, by gavage, site: liver, lesion: hepatocellular adenoma + hepatocellular carcinoma + neoplastic nodule, dosed 103 weeks, study length 104 weeks): 9000 mg/kg/day
- TD50 (rat, strain Fischer 344, females, by gavage, site: any site (literature study), lesion: several types, types named in the paper, dosed 103 weeks, study length 104 weeks): 230000 mg/kg/day (inactive)
- TD50 (rat, strain Fischer 344, males, by gavage, site: adrenal gland, lesion: pheochromocytoma + pheochromocytoma, malignant, dosed 103 weeks, study length 104 weeks): 5290 mg/kg/day
- TD50 (rat, strain Fischer 344, males, by gavage, site: adrenal gland, lesion: pheochromocytoma, dosed 103 weeks, study length 104 weeks): 5290 mg/kg/day
- TD50 (rat, strain Fischer 344, males, by gavage, site: any site (literature study), lesion: several types, types named in the paper, dosed 103 weeks, study length 104 weeks): 14200 mg/kg/day
- TD50 (rat, strain Fischer 344, males, by gavage, site: thyroid gland + thyroid follicle, lesion: follicular-cell adenoma + cystadenoma, NOS, dosed 103 weeks, study length 104 weeks): 28000 mg/kg/day
- TD50 (rat, strain Fischer 344, males, by gavage, site: thyroid gland + thyroid follicle, lesion: follicular-cell adenoma + follicular-cell carcinoma + cystadenoma, NOS, dosed 103 weeks, study length 104 weeks): 16700 mg/kg/day
